Like-named read-outs stand apart in the source and are kept apart here. Bounds are passed on as bounds.

Data on 39 molecules can be found in patent US20240150377A1, “MODULATORS OF CYSTIC FIBROSIS TRANSMEMBRANE CONDUCTANCE REGULATOR” (VERTEX PHARMACEUTICALS INCORPORATED, priority 2020, published 2024).

This experiment deals with T1, CFTR (Homo sapiens, UniProt P13569, DEL508-508).
T1 construct: endogenous in cells; host or cells: primary human bronchial epithelial cells from CF subjects (F508del/MF-HBE), differentiated at air-liquid interface
Nature of the experiment: HBE assay: Ussing chamber assay of CFTR-mediated short-circuit currents. In kind it is cell-based. A digest of the protocol: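 CFTR-mediated Isc (μA/cm²) equals the peak response to apical 20 μM forskolin minus the residual after a 20 μM each BPO/GlyH-101/CFTR inhibitor 172 cocktail, recorded in Ussing chambers at Vhold 0 mV, 37 °C, pH 7.4, with 30 μM apical amiloride. Cells were F508del/MF HBE cultures preincubated 18-24 h with corrector (concentration range or 10 μM) plus 1 μM ivacaftor in 20% human serum.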

[1] abbreviates: Table 11, read-out: HBE Max Activity (%).
Setting [2] is: Table 12, at 10 μM, read-out: HBE Activity at 10 μM (%).
Setting [3] is: HBE assay, read-out: HBE Max activity (%).
Where [4] appears, read: Table 10, read-out: HBE Max activity (%).
The mark [5] stands for this setting: Table 12, read-out: HBE Max Activity (%).
The mark [6] stands for this setting: Table 13, at 10 μM, read-out: HBE Activity at 10 μM (%).
[7] abbreviates: Table 10, at 10 μM, read-out: HBE activity at 10 (μM) (%).
The mark [8] stands for this setting: Table 13, read-out: HBE Max Activity (%).

T1 sequence (P13569 with tags, fused parts or gaps DEL508-508): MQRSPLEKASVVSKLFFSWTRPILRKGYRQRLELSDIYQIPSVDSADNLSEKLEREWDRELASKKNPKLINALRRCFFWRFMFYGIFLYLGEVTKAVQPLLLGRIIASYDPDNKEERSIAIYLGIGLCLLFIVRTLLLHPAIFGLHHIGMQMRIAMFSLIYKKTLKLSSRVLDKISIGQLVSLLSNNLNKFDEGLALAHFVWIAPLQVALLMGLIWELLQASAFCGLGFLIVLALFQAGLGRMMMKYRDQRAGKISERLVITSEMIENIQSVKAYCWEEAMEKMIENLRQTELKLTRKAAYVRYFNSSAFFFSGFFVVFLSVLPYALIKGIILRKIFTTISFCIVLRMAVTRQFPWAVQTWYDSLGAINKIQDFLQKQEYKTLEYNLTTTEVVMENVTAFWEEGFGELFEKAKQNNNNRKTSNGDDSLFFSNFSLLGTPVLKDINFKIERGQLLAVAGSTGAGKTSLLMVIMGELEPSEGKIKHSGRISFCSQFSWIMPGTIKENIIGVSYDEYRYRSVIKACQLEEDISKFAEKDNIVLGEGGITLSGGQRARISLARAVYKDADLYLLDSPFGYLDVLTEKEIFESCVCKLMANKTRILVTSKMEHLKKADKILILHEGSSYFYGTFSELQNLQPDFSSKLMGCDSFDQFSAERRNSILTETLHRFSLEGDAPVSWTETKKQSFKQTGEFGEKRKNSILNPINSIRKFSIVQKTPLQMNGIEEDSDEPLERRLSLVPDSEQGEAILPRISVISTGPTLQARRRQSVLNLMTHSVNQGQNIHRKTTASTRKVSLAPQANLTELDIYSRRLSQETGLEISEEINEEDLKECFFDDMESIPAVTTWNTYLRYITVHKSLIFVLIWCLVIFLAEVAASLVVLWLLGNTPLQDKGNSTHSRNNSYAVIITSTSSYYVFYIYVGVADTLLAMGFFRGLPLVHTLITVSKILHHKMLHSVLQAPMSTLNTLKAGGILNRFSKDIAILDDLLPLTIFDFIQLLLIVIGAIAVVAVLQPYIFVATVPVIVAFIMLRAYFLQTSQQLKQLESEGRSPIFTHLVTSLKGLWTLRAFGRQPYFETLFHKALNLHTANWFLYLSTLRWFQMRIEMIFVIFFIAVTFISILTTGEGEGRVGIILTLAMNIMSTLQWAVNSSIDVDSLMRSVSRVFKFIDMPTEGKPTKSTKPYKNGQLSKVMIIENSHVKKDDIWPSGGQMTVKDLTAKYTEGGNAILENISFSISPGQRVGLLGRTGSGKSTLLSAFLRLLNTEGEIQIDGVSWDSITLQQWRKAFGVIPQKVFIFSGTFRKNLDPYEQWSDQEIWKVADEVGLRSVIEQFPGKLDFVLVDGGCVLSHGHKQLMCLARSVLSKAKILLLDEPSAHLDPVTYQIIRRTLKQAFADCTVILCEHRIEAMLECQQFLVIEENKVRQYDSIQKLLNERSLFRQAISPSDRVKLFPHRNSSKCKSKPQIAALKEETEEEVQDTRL

With `Cc1cccc(C)c1-c1cc2nc(n1)NS(=O)(=O)c1cccc(c1)C(=O)N(Cc1nccc(NCC(C)(C)C)n1)[C@H](CC(C)(C)C)CO2` [Compound 646], where the note is “Table 11, read-out: HBE EC50”, the EC50 is less than 1 µM. Under setting [1], the Emax is greater than 60%. Regarding `Cc1cc(N(C)C)nc(CN2C(=O)c3cccc(c3)S(=O)(=O)Nc3nc(cc(-c4c(C)cccc4C)n3)OC[C@H]2CC(C)(C)C)n1` [Compound 324], the activation at 10 µM under setting [2] is greater than 600%. As to `Cc1cccc(C)c1-c1cc2nc(n1)NS(=O)(=O)c1cccc(c1)C(=O)N(Cc1ncc(OC3CC(C)(C)C3)cn1)[C@H](CC(C)C)CO2` [Compound 1423], where the note is “HBE assay, read-out: HBE EC50”, the EC50 was 1 to 3 µM. Under setting [3], the Emax was greater than 60%.

For the molecule `Cc1cccc(C)c1-c1cc2nc(n1)NS(=O)(=O)c1cccc(c1)C(=O)N(Cc1ccc(N3CCOCC3)nc1)[C@H](CC(C)(C)C)CO2` [Compound 60, (11R)-6-(2,6-Dimethylphenyl)-11-(2,2-dimethylpropyl)-12-[(6-morpholino-3-pyridyl)methyl]-2,2-dioxo-9-oxa-2λ^6-thia-3,5,12,19-tetrazatricyclo[12.3.1.14,8]nonadeca-1(18),4(19),5,7,14,16-hexaen-13-one], the EC50 (Table 10, read-out: HBE EC50) is less than 1 µM. Under setting [4], the Emax is greater than 60%. `Cc1cccc(C)c1-c1cc2nc(n1)NS(=O)(=O)c1cccc(c1)C(=O)N(Cc1coc(C(C)C)n1)[C@H](CC(C)(C)C)CO2` [Compound 703]: for the setting “Table 12, read-out: HBE EC50”, the EC50 is less than 1 µM. Besides, the Emax under setting [5] was greater than 60%.

Turning to `Cc1cccc(C)c1-c1cc2nc(n1)NS(=O)(=O)c1cccc(c1)C(=O)N(Cc1ncc(N3CCC4(CCC4)C3)cn1)[C@H](CC(C)(C)C)CO2` [Compound 612], the EC50 (Table 11, read-out: HBE EC50) was less than 1 µM. The Emax under setting [1] was greater than 60%. Take `Cc1cccc(C)c1-c1cc2nc(n1)NS(=O)(=O)c1cccc(c1)C(=O)N(Cc1cncc(N3CCCC[C@@H]3C3CC3)n1)[C@H](CC(C)(C)C)CO2` [Compound 1533]: where the note is “read-out: HBE Activity at 10 μM (%)”, the activation at 10 µM is greater than 60%. For `Cc1cccc(C)c1-c1cc2nc(n1)NS(=O)(=O)c1cccc(c1)C(=O)N(Cc1ncc(N3C4CCC3CC4)cn1)[C@H](CC(C)(C)C)CO2` [Compound 554], the half-maximal effective concentration (EC50) (HBE EC50 (μM), Table 12) is less than 1 µM. The Emax under setting [5] is greater than 60%. As to `Cc1cc(C2CCOCC2)ccc1CN1C(=O)c2cccc(c2)S(=O)(=O)Nc2nc(cc(-c3c(C)cccc3C)n2)OC[C@H]1CC(C)(C)C` [Compound 519], the activation at 10 µM under setting [6] is greater than 600%. As for `Cc1cccc(C)c1-c1cc2nc(n1)NS(=O)(=O)c1cccc(c1)C(=O)N(Cc1nccc(C(C)(C)O)n1)[C@H](CC(C)(C)C)CO2` [Compound 813], the EC50 (Table 11, read-out: HBE EC50) is less than 1 µM. In addition, the Emax under setting [1] is greater than 60%. Consider `Cc1cccc(C)c1-c1cc2nc(n1)NS(=O)(=O)c1cccc(c1)C(=O)N(Cc1ccc(-c3cnoc3)cn1)[C@H](CC(C)(C)C)CO2` [Compound 291], for which, under setting [4], the Emax was greater than 60%.

Turning to `Cc1cccc(C)c1-c1cc2nc(n1)NS(=O)(=O)c1cccc(c1)C(=O)N(CC1CCCOC1)[C@H](CC(C)(C)C)CO2` (stereo partly drawn) [Compound 818], the EC50 (Table 11, read-out: HBE EC50) is less than 1 µM. Under setting [1], the Emax is greater than 60%. Consider `Cc1cccc(C)c1-c1cc2nc(n1)NS(=O)(=O)c1cccc(c1)C(=O)N(Cc1cnn(C)c1)[C@H](CC(C)(C)C)CO2` [Compound 826], for which, under setting [7], the activation at 10 µM was greater than 60%. In the case of `Cc1cccc(C)c1-c1cc2nc(n1)NS(=O)(=O)c1cccc(c1)C(=O)N(Cc1ccc(C3=CCCCC3)nn1)[C@H](CC(C)(C)C)CO2` [Compound 237], the activation at 10 µM under setting [2] is greater than 600%. Same read-out and setting: the value for `Cc1cccc(C)c1-c1cc2nc(n1)NS(=O)(=O)c1cccc(c1)C(=O)N(Cc1nc(C)c(C)n1C)[C@H](CC(C)(C)C)CO2` [Compound 269] was greater than 600%. Consider `COC1CC2(C1)CN(c1cnc(CN3C(=O)c4cccc(c4)S(=O)(=O)Nc4nc(cc(-c5c(C)cccc5C)n4)OC[C@H]3CC(C)(C)C)nc1)C2` [Compound 868], for which, for the setting “Table 13, read-out: HBE EC50”, the EC50 was less than 1 µM. Besides, the Emax under setting [8] was greater than 60%.

As for `Cc1cccc(C)c1-c1cc2nc(n1)NS(=O)(=O)c1cccc(c1)C(=O)N(CC(=O)N1CCC(c3ccccc3)CC1)[C@H](CC(C)(C)C)CO2` [Compound 203], the activation at 10 µM under setting [6] was greater than 600%. For `Cc1cccc(C)c1-c1cc2nc(n1)NS(=O)(=O)c1cccc(c1)C(=O)N(Cc1ncccc1NCC(C)(C)C)[C@H](CC(C)(C)C)CO2` [Compound 724], the EC50 (Table 11, read-out: HBE EC50) was less than 1 µM. Further, the Emax under setting [1] was greater than 60%. On to `Cc1cccc(C)c1-c1cc2nc(n1)NS(=O)(=O)c1cccc(c1)C(=O)N(CC1CCC(N3CCOCC3)CC1)[C@H](CC(C)(C)C)CO2` (single isomer, unassigned) [Compound 154], for which the concentration giving a half-maximal response (EC50) (Table 10, read-out: HBE EC50) was less than 1 µM. Under setting [4], the Emax was greater than 60%. Consider `COC(=O)C1CCN(c2ccc(CN3C(=O)c4cccc(c4)S(=O)(=O)Nc4nc(cc(-c5c(C)cccc5C)n4)OC[C@H]3CC(C)(C)C)nc2)CC1` [Compound 255], for which, under setting [6], the activation at 10 µM was greater than 600%.

Regarding `Cc1cccc(C)c1-c1cc2nc(n1)NS(=O)(=O)c1cccc(c1)C(=O)N(Cc1ncc(OCC3(C)COC3)cn1)[C@H](CC(C)(C)C)CO2` [Compound 1360], the EC50 (HBE assay, read-out: HBE EC50) was less than 1 µM. Besides, under setting [3], the Emax is greater than 60%. `Cc1cccc(C)c1-c1cc2nc(n1)NS(=O)(=O)c1cccc(c1)C(=O)N(Cc1nccnc1C)[C@H](CC(C)(C)C)CO2` [Compound 698]: the activation at 10 µM under setting [2] is greater than 600%.

In the case of `Cc1cccc(C)c1-c1cc2nc(n1)NS(=O)(=O)c1cccc(c1)C(=O)N(Cc1ccnc(N3CCOCC3)c1)[C@H](CC(C)(C)C)CO2` [Compound 466], the activation at 10 µM under setting [7] was greater than 60%. Besides, the Emax under setting [4] was greater than 60%. On to `Cc1cccc(C)c1-c1cc2nc(n1)NS(=O)(=O)c1cccc(c1)C(=O)N(Cc1cccc(N3CCOC(C)(C)C3)n1)[C@H](CC(C)(C)C)CO2` [Compound 872], for which, where the note is “Table 12, read-out: HBE EC50”, the EC50 was less than 1 µM. For the same molecule, under setting [5], the Emax was greater than 60%. Regarding `Cc1cccc(C)c1-c1cc2nc(n1)NS(=O)(=O)c1cccc(c1)C(=O)N(Cc1cccc(N(C)CC3(C)CC3)n1)[C@H](CC(C)(C)C)CO2` [Compound 1354], where the note is “HBE assay, read-out: HBE EC50”, the EC50 is less than 1 µM. Besides, under setting [3], the Emax was greater than 60%. As to `COC1CCN(c2cnc(CN3C(=O)c4cccc(c4)S(=O)(=O)Nc4nc(cc(-c5c(C)cccc5C)n4)OC[C@H]3CC(C)(C)C)nc2)CC1` [Compound 718], the EC50 (Table 11, read-out: HBE EC50) is less than 1 µM. Also, the Emax under setting [1] was greater than 60%. As for `Cc1cccc(C)c1-c1cc2nc(n1)NS(=O)(=O)c1cccc(c1)C(=O)N(Cc1cnc(C3CCOCC3)cn1)[C@H](CC(C)C)CO2` [Compound 240], the EC50 (Table 12, read-out: HBE EC50) was less than 1 µM. Under setting [5], the Emax is greater than 60%.

Turning to `Cc1cccc(C)c1-c1cc2nc(n1)NS(=O)(=O)c1cccc(c1)C(=O)N(Cc1ccc(C3CC(C)(C)CCO3)cn1)[C@H](CC(C)(C)C)CO2` (stereo partly drawn) [Compound 706], the EC50 (Table 12, read-out: HBE EC50) is less than 1 µM. The Emax under setting [5] was greater than 60%. For the molecule `Cc1cccc(C)c1-c1cc2nc(n1)NS(=O)(=O)c1cccc(c1)C(=O)N(Cc1cncc(N3CC(C(=O)O)C(C(C)C)C3)n1)[C@H](CC(C)(C)C)CO2` (stereo partly drawn) [Compound 263], the activation at 10 µM under setting [2] fell in the range of 30 to 60%. With `Cc1cccc(C)c1-c1cc2nc(n1)NS(=O)(=O)c1cccc(c1)C(=O)N(Cc1ncc(N3CCCCC3)cn1)[C@H](CC(C)(C)C)CO2` [Compound 748], the activation at 10 µM (Table 11, at 10 μM, read-out: HBE Activity at 10 μM (%)) was greater than 60%. Further, the EC50 (Table 11, read-out: HBE EC50) was less than 1 µM. In addition, the Emax under setting [1] was greater than 60%. With `Cc1cccc(C)c1-c1cc2nc(n1)NS(=O)(=O)c1cccc(c1)C(=O)N(CC(=O)N1CCCCC1c1ccc(F)cc1)[C@H](CC(C)(C)C)CO2` (stereo partly drawn) [Compound 177], the activation at 10 µM under setting [6] is greater than 600%. With `COCCN(c1cncc(CN2C(=O)c3cccc(c3)S(=O)(=O)Nc3nc(cc(-c4c(C)cccc4C)n3)OC[C@H]2CC(C)(C)C)n1)C1CCCC1` [Compound 1437], the EC50 (HBE assay, read-out: HBE EC50) is less than 1 µM. In addition, the Emax under setting [3] is greater than 60%.

Turning to `COCCN(CC(C)C)c1cccc(CN2C(=O)c3cccc(c3)S(=O)(=O)Nc3nc(cc(-c4c(C)cccc4C)n3)OC[C@H]2CC(C)(C)C)n1` [Compound 1372], the EC50 (HBE assay, read-out: HBE EC50) was less than 1 µM. Also, under setting [3], the Emax was greater than 60%.

For `Cc1cccc(C)c1-c1cc2nc(n1)NS(=O)(=O)c1cccc(c1)C(=O)N(Cc1ncc(N3CCCC3(C)C)cn1)[C@H](CC(C)(C)C)CO2` [Compound 537], the EC50 (Table 13, read-out: HBE EC50) is less than 1 µM. Further, the Emax under setting [8] is greater than 60%.

In the case of `Cc1cccc(C)c1-c1cc2nc(n1)NS(=O)(=O)c1cccc(c1)C1Oc3ccc4ncccc4c3CN1[C@H](CC(C)(C)C)CO2` (stereo partly drawn) [Compound 750], the activation at 10 µM under setting [7] is greater than 60%. As to `Cc1cccc(C)c1-c1cc2nc(n1)NS(=O)(=O)c1cccc(c1)C(=O)N(Cc1ncc(N3CCC(C)CC3)cn1)[C@H](CC(C)(C)C)CO2` [Compound 719], the EC50 (Table 11, read-out: HBE EC50) was less than 1 µM. Further, the Emax under setting [1] was greater than 60%.

Consider `Cc1cccc(C)c1-c1cc2nc(n1)NS(=O)(=O)c1cccc(c1)C(=O)N(Cc1ccc(-c3c(C)n[nH]c3C)cn1)[C@H](CC(C)(C)C)CO2` [Compound 298], for which the EC50 (Table 10, read-out: HBE EC50) lay within 1 to 3 µM. Also, the Emax under setting [4] is greater than 60%.

For `Cc1cccc(C)c1-c1cc2nc(n1)NS(=O)(=O)c1cccc(c1)C(=O)N(Cc1cccc(N3CCOCC3)n1)[C@H](CC(C)(C)C)CO2` [Compound 384], the EC50 (Table 10, read-out: HBE EC50) is less than 1 µM. Also, under setting [4], the Emax is greater than 60%. For `CCc1cccc(CN2C(=O)c3cccc(c3)S(=O)(=O)Nc3nc(cc(-c4c(C)cccc4C)n3)OC[C@H]2CC(C)(C)C)n1` [Compound 730], the EC50 (Table 11, read-out: HBE EC50) is less than 1 µM. In addition, the Emax under setting [1] is greater than 60%.
